Test results: ChEMBL document CHEMBL1201862, “PubChem BioAssay data set” (2004)
Activity calls are given as the source filed them.

Key:
CAAX prenyl protease 2 [1] = molecular target: T1, CAAX prenyl protease 2 (Homo sapiens, UniProt Q9Y256); assay: human Rce1 protease inhibitors, dose response, biochemical, yeast membranes, quenched-peptide fluorescence, cherry-pick (AID 588849)
T1 sequence (Q9Y256 whole entry): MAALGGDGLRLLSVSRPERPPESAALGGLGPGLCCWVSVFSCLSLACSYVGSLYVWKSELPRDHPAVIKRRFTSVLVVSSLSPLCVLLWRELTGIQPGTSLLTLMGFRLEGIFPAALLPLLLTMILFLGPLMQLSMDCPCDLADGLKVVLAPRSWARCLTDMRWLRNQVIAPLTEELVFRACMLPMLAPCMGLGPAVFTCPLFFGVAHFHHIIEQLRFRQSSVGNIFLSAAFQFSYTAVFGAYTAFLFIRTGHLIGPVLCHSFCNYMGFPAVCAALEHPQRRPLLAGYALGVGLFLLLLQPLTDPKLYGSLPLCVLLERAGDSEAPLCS

CAAX prenyl protease 2 [2] = molecular target: CAAX prenyl protease 2 (Saccharomyces cerevisiae S288c, UniProt Q03530); format: biochemical
Trypsin = Trypsin (Sus scrofa, UniProt P00761); assay: porcine trypsin inhibitors, dose response, selectivity assay for Rce1 protease inhibitor project, biochemical, quenched peptide fluorescence, cherry-pick (AID 488789)
Streptokinase A = molecular target: T2, Streptokinase A (Streptococcus pyogenes serotype M1, UniProt P10520); assay: S. pyogenes streptokinase expression inhibitors, potency, dose response, plasminogen activation absorbance, OD405 (AID 1914); format: functional, Streptococcus pyogenes M1 GAS;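 note: secreted streptokinase activity via plasminogen activation per viability signal from cell pellet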
T2 sequence (P10520 whole entry): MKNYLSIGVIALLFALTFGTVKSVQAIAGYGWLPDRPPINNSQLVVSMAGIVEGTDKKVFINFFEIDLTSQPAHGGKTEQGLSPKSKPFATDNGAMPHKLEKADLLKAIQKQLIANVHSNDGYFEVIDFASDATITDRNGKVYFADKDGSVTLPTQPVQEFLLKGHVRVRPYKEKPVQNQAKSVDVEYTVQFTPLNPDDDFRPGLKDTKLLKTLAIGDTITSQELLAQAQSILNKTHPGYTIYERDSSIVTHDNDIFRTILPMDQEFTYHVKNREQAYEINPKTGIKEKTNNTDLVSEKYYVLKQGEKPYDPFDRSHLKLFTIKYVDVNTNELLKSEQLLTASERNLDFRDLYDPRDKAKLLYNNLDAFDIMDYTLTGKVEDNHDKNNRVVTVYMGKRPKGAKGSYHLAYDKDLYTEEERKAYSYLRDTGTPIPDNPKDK

Streptococcus = assay: Group A Streptococcus viability loss, dose response, counter-screen for streptokinase expression inhibitor project, luminescence, BacTiterGlo (AID 1915); format: functional, organism-based;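 note: potency for reduction of bacterial viability or growth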
HEK293 [3] = assay: NOD2 signaling inhibitors in MDP-stimulated cells, cell-based, uHTS, luminescence (AID 2001); format: functional; conditions: Homo sapiens
HEK293 [4] = assay: NOD1 signaling inhibitors, primary screen, cell-based, luminescence, uHTS (AID 1578); format: functional; conditions: Homo sapiens
[5] = tested on: Streptococcus sp. 'group A'; assay: growth inhibition of control SK(-) GAS strain, dose response, counter-screen for streptokinase expression inhibitor project, luminescence, kanamycin, BacTiterGlo, confirmation (AID 1900); format: functional, organism-based; conditions: read-out: EC50
[6] = molecular target: T3, Short transient receptor potential channel 4 (Mus musculus, UniProt Q9QUQ5); assay: mouse TRPC4 channel activators, dose response, cell-based, HEK293 TRPC4/mu-opioid, Fluo-4 calcium (AID 434937); format: functional
T3 sequence (Q9QUQ5 whole entry): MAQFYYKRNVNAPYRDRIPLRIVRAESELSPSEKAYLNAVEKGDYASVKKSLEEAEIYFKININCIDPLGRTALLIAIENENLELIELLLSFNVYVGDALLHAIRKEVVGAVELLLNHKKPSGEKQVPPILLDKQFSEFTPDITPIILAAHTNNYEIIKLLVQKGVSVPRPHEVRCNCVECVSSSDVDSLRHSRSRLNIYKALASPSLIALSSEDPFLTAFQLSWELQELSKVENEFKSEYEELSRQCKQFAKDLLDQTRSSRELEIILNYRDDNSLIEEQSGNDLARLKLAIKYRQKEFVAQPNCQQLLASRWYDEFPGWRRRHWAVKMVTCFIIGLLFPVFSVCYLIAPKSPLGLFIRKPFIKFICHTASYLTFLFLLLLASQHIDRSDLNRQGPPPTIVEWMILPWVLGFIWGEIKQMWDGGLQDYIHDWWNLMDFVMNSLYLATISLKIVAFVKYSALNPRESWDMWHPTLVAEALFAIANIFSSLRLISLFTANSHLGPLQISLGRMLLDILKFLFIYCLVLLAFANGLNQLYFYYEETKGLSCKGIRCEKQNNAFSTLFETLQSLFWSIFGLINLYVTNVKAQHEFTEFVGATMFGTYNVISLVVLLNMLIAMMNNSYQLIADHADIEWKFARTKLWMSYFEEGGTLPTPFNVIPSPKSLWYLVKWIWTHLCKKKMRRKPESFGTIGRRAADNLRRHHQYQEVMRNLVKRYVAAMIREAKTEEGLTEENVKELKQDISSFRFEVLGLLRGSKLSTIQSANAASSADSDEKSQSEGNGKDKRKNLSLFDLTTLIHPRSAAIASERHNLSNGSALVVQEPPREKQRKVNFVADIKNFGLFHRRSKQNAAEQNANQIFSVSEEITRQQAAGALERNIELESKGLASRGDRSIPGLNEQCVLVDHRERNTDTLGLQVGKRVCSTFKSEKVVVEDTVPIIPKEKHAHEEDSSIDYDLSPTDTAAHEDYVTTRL

HEK293 [7] = assay: cells; format: functional, cell-based; conditions: Homo sapiens
[8] = HEp-2 cell cytotoxicity, dose response, cytotoxicity control for RSV inhibitor project, HTS (AID 2410); format: functional; conditions: human respiratory syncytial virus
HEK293 [9] = assay: cells; format: functional, cell-based; conditions: Homo sapiens; remark: listed apart in the source
[10] = molecular target: Nucleotide-binding oligomerization domain-containing protein 2 (Homo sapiens, UniProt Q9HC29); assay: NOD2 signaling inhibitors, cell-based, luminescence, uHTS, HEK293 (AID 1566); format: functional
HEK293 [11] = assay: cells; format: functional, cell-based; conditions: Homo sapiens; remark: listed apart in the source
[12] = molecular target: Glyceraldehyde-3-phosphate dehydrogenase (Homo sapiens, UniProt P04406)
[13] = molecular target: T4, Alkaline phosphatase, tissue-nonspecific isozyme (Homo sapiens, UniProt P05186); assay: human TNAP enzyme inhibitors, SAR follow-up, biochemical, luminescent, dose response (AID 1056)
T4 sequence (P05186 whole entry): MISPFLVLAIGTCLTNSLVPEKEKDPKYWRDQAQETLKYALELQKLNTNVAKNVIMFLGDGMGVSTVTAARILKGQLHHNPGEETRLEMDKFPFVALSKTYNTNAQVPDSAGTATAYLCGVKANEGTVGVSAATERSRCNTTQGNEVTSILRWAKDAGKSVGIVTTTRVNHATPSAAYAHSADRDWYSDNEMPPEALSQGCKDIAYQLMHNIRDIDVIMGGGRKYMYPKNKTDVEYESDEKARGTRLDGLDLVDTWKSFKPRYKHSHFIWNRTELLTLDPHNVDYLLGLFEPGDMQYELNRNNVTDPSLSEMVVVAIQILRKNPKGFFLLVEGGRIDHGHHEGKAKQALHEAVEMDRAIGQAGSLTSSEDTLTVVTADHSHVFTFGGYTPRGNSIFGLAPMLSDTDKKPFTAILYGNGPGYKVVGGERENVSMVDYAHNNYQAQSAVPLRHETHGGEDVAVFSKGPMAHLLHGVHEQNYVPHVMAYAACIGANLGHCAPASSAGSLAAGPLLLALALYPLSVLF

[14] = molecular target: Alkaline phosphatase, placental type (Homo sapiens, UniProt P05187); assay: PLAP enzyme inhibitors, confirmation, biochemical, luminescence (AID 1512); format: functional
cells = format: functional
Protein RecA = molecular target: T5, Protein RecA (Mycobacterium tuberculosis, UniProt P9WHJ3); assay: Fluorescence Cell-Free Homogeneous Dose Retest to Identify Inhibitors of RecA-Intein Splicing Activity. [Related pubchem assays (depositor defined):AID2097, AID2223, AID489010, AID492950]; format: functional
T5 sequence (P9WHJ3 whole entry): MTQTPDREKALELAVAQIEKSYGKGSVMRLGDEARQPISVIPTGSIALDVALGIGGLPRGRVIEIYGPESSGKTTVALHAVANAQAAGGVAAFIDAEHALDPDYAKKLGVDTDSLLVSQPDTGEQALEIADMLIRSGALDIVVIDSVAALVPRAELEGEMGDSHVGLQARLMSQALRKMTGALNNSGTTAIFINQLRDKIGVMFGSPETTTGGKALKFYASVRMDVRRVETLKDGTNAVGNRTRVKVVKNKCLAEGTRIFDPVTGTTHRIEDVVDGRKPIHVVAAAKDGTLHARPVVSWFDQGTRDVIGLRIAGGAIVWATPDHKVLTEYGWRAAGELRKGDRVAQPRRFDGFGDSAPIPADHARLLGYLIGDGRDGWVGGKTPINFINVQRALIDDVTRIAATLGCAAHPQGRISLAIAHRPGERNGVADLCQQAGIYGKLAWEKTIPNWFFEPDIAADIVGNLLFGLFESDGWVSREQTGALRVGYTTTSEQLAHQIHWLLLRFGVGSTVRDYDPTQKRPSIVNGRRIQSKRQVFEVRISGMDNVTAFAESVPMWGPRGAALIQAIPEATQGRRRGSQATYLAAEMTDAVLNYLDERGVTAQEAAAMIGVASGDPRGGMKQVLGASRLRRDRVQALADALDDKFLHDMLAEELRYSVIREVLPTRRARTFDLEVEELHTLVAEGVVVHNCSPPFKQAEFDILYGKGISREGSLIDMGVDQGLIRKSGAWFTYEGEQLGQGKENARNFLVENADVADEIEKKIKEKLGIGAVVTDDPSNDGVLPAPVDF

T-cell = assay: inhibitors of CD8+ T cell–vesicle binding, dose response, mouse 2C CD8+ T cells, flow cytometry (AID 485284); format: functional
[15] = molecular target: T6, Replicative DNA helicase DnaB (Mycobacterium tuberculosis, UniProt P9WMR3); assay: DnaB intein splicing inhibitors, dose response, biochemical, cell-free fluorescence (AID 449749); format: functional
T6 sequence (P9WMR3 whole entry): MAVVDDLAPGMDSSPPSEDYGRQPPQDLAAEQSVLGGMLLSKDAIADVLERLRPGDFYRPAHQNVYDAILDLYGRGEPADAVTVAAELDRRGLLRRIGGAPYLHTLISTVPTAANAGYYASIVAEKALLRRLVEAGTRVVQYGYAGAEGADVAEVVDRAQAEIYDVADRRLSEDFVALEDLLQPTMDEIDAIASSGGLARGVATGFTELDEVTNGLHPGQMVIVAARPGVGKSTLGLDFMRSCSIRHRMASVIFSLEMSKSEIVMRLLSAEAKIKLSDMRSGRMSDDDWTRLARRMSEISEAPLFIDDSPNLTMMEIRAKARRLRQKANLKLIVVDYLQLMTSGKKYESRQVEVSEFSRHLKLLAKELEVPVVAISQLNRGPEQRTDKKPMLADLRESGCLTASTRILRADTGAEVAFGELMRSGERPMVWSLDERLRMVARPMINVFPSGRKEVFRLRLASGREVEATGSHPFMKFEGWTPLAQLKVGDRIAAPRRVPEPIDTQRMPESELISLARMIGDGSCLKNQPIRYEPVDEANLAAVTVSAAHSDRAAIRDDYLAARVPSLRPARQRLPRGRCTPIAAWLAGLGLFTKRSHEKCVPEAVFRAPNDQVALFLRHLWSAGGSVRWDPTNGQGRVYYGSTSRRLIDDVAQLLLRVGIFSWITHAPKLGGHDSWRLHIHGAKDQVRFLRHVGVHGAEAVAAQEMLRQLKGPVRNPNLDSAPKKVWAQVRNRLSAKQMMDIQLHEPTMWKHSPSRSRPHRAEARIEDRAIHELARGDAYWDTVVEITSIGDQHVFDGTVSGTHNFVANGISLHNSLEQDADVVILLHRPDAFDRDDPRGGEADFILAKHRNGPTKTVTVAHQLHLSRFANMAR

X-box-binding protein 1 = X-box-binding protein 1 (Homo sapiens, UniProt P17861); format: functional, Cricetulus griseus;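 note: confirmatory dose-response counter-screen serving a CHOP assay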
[16] = molecular target: DNA damage-inducible transcript 3 protein (Mus musculus, UniProt P35639); format: functional, Cricetulus griseus
DNA damage-inducible transcript 3 protein, sequence (P35639 whole entry): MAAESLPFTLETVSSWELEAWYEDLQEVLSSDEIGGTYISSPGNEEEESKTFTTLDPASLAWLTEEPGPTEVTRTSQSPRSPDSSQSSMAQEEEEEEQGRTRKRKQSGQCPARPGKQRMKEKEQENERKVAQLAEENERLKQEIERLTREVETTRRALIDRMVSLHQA

CAAX prenyl protease 2 (Saccharomyces cerevisiae S288c, UniProt Q03530), sequence (Q03530 whole entry): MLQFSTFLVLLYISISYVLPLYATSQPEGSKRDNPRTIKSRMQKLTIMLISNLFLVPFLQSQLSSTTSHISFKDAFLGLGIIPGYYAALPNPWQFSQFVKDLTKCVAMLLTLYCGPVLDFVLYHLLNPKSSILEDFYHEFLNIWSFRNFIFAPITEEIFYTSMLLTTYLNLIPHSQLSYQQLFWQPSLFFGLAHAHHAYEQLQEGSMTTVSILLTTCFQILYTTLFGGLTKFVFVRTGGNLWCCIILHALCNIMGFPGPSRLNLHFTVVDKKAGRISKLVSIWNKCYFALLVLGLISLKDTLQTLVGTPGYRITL
Trypsin, sequence (P00761 whole entry): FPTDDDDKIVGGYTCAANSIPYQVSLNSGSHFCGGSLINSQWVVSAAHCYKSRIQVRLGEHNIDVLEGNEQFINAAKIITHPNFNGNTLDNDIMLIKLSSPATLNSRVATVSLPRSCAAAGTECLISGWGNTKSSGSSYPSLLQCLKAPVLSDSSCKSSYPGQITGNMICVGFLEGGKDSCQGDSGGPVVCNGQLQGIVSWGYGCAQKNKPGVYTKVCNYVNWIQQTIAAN
Glyceraldehyde-3-phosphate dehydrogenase, sequence (P04406 whole entry): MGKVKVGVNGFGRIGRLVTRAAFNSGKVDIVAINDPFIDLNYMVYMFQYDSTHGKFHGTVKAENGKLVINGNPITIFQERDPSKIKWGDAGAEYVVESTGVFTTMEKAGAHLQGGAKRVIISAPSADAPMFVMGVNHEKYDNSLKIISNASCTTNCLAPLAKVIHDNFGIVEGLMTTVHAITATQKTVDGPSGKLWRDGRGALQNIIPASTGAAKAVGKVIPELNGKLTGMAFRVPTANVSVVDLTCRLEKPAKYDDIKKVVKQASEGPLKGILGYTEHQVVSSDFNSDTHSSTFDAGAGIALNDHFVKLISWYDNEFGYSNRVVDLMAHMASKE
Alkaline phosphatase, placental type, sequence (P05187 whole entry): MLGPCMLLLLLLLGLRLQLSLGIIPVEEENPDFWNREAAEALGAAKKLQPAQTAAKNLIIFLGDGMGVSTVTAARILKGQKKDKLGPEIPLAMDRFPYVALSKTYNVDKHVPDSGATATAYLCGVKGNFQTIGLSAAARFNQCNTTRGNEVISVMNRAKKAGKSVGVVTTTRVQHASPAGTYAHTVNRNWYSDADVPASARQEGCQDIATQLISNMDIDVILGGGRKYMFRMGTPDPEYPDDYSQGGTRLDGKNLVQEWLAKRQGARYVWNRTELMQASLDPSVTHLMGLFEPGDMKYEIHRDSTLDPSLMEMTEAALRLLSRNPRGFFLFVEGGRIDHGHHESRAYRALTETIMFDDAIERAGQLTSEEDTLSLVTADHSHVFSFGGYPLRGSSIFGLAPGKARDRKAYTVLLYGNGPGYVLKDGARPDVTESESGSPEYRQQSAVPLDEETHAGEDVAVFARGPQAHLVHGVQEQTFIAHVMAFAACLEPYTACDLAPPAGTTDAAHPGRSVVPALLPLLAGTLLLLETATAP
X-box-binding protein 1, sequence (P17861 whole entry): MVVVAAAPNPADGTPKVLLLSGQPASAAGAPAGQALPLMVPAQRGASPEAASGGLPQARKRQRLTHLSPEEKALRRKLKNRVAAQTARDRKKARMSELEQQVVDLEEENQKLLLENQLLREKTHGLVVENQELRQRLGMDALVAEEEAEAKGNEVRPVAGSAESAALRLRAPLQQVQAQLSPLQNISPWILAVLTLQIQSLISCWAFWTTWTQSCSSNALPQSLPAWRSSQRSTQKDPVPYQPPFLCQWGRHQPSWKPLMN
Nucleotide-binding oligomerization domain-containing protein 2, sequence (Q9HC29 whole entry, the tested form may be a part): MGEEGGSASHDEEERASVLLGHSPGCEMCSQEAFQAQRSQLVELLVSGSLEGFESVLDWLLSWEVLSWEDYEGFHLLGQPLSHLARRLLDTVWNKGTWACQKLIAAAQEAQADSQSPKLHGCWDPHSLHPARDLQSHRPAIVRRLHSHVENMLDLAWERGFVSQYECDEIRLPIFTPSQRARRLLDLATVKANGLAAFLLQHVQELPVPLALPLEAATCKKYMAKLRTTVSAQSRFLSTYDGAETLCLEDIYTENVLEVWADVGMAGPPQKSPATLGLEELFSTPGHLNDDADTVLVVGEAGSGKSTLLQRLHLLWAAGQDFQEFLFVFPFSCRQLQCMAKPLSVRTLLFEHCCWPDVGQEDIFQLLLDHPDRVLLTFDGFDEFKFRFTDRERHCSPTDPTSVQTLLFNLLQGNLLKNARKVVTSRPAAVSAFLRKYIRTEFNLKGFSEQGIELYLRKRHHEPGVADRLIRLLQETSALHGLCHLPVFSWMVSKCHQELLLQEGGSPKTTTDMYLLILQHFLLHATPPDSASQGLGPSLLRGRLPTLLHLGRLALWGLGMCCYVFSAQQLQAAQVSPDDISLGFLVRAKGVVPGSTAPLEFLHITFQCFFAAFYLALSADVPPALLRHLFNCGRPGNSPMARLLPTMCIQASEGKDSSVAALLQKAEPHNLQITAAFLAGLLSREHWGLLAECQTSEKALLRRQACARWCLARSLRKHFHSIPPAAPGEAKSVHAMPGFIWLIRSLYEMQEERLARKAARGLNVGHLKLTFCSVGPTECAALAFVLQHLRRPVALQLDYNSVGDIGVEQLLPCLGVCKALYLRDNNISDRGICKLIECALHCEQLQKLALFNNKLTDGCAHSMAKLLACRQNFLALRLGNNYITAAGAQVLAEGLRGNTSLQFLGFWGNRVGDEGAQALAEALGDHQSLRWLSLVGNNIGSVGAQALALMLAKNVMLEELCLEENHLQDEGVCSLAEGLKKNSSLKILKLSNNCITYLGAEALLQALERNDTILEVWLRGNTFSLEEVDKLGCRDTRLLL

## CCn1c(=O)c(-c2ccccc2)c(O)c2ccccc21
CAAX prenyl protease 2 [1]
  AC50: 13.9 µM (active)
CAAX prenyl protease 2 [2]
  AC50: 11.2 µM (active)
Trypsin
  AC50: 7.88 µM (active)

## Cc1ccc(-c2nc3ccc(C)cn3c2CC(=O)N(C)C)cc1
CAAX prenyl protease 2 [2]
  AC50: 16.8 µM (active)

## Cc1csc2c(N3CCN(C(=O)Nc4ccc(Cl)c(Cl)c4)CC3)ncnc12
Streptokinase A
  EC50: 14.8 µM (active)
Streptococcus
  EC50: 57.1 µM (active)
HEK293 [3]
  IC50: 3.23 µM (active)
HEK293 [4]
  EC50: 4.76 µM (active)
[5]
  EC50: 3.4 µM (active)
[6]
  EC50: 1.88 µM (active)
HEK293 [7]
  IC50: 8.45 µM (active)
[8]
  CC50: 43.7 µM (active)
HEK293 [9]
  IC50: > 20 µM (inactive)
[10]
  EC50: 5 µM (active)
HEK293 [11]
  IC50: 4.78 µM (active)

## CCCc1n[nH]c2c1C(=O)CC(C)(C)C2
[12]
  IC50: > 100 µM (not active)
[13]
  IC50: 14.4 µM (active)
[14]
  IC50: > 100 µM (inactive)

## COc1ccc(NC(=O)Nc2ccc(O)c3ccccc23)cc1
cells
  IC50: > 50 µM (active)
Protein RecA
  EC50: 0.722 µM (active)
T-cell
  EC50: 12.5 µM (active)
[15]
  AC50: 18 µM (active)

## CC1=C(C(=O)Nc2ccc(C)cc2C)C(c2cccc(Cl)c2)n2nc(C(=O)OC(C)C)nc2N1 (centres undefined)
X-box-binding protein 1
  Absolute IC50 (XBP1): 10 µM
[16]
  Absolute IC50 (CHOP): 10 µM
